Patent US20220033448A1, “METHODS FOR AGGREGATION OF PROTEINS” (priority 2011, published 2022)
Where two headings read alike, the source gives them in different places. No end group written: not given here. *: point of attachment. Biotin = O=C1N[C@H]2[C@H](CS[C@H]2CCCCC(=O)*)N1; Ttds = NCCCOCCOCCOCCCNC(=O)CCC(=O)*

Key:
PR8 virus = assay type: cell-based, influenza A virus (H1N1 strain)
S. aureus [1] = assay type: cell-based, Staphylococcus aureus; details: S. aureus clinical strain MRSA 204; passaged at half the MIC over 15 days
S. aureus MRSA 326 = assay: Neutropenic-mouse thigh model; details: neutropenic mice; bolus i.v. dose of 15 mg/kg 2 h after inoculation; sacrificed 4 hours post-infection
β-Gal [2] = biological target: T1, β-Gal (Escherichia coli, UniProt P00722); details: 1 μM peptide; immobilized β-Gal
T1 sequence (P00722 2-1024 with the stated changes limits assumed): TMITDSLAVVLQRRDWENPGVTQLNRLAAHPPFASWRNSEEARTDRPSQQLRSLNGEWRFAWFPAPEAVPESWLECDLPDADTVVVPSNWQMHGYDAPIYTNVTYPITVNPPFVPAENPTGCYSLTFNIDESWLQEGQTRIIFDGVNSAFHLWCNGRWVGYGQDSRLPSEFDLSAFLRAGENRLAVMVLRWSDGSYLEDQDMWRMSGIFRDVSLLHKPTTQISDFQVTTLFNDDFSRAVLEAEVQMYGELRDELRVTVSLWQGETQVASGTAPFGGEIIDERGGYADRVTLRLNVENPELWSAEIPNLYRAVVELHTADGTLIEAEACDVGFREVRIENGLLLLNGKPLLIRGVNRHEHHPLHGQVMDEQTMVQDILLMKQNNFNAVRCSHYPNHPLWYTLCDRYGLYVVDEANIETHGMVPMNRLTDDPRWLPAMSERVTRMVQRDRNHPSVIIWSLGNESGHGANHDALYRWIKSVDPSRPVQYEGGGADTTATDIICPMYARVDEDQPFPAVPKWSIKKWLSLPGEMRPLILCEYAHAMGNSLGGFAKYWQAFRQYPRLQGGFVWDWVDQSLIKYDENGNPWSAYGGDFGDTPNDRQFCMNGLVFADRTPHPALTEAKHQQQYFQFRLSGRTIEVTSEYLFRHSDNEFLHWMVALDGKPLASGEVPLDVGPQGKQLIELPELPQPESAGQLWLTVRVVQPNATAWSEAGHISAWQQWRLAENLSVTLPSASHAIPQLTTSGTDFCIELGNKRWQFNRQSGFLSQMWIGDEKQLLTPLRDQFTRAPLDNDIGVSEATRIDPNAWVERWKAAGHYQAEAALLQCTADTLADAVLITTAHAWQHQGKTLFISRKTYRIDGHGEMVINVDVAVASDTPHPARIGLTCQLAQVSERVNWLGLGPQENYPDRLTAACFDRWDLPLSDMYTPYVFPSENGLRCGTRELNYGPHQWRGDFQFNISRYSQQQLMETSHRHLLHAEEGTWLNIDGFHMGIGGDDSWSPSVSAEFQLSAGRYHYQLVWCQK
Method: In this in vitro experiment the affinity of different interferor peptides was measured for binding to β-gal by means of surface plasmon resonance (SPR). SPR experiments were performed at 25° C. using a Biacore T100 equipped with CM5 sensor chip (GE Healthcare.). Coupling reagents (N-ethyl-N′-(3-dimethylaminopropyl)carbodiimide (EDC), N-hydroxysuccinimide (NHS) and ethanolamine-HCI) were purchased from GE Healthcare. BSA and β-gal were purchased from Sigma-Aldrich and Roche Diagnostics, respectively. […] The proteins BSA and β-Gal were immobilized respectively, in the reference and sample channels on a CM5 sensor chip by standard amine coupling chemistry at a flow of 10 μl min^−1. The carboxymethyl dextran surface was activated by the injection of a 1:1 ratio of EDC and NHS for 7 minutes. The proteins were diluted in 10 mM sodium-acetate buffer, pH 4.5 to a final concentration of 0.2 mg m1^−1 and injected in short pulses over the activated surface until the immobilization levels reached 4000 RU or 8000 RU, for BSA and β-Gal, respectively. The remaining reactive groups were blocked with 1 M ethanolamine, pH 8. After completion of coupling, the surface was regenerated with short pulses of 50 mM NaOH and 8 M urea to remove non-covalently attached proteins. […] The peptides, dissolved in the running buffer (10 mM sodium phosphate, pH 6.8, 150 mM NaCI, 3 mM EDTA and 0.015% Tween 20) at a concentration of 1 μM, were injected for 60 s at a flow rate of 30 μl min^−1 and then allowed to dissociate for 600 s. The injection was repeated on the same surface as well as on independently immobilized surfaces. The surface was regenerated between each cycle by 30 s pulses of i) 50 mM NaOH, and ii) 8 M urea, and was allowed to stabilize for 400 s before the next cycle.
The peptide dissolved in the running buffer was injected for 60 s at a flow-rate of 301.11min′ over the reference (BSA) and sample (β-Gal) surfaces in a range of concentrations (0-4 μM, with one internal replicate) and were then allowed to dissociate for 600 s. The concentration series were repeated on the same surface (three times) as well as on independently immobilized surfaces. The surface was regenerated between each cycle by 30 s pulses of i) 50 mM NaOH, and ii) 8 M urea, and was allowed to stabilize for 400 s before the next cycle.
The data were globally fitted to a three-state model, using the Biacore T100 software, assuming an initial encounter between the peptide in solution and the protein on the chip followed by a two-step rearrangement before an identical binding site becomes available at the growing β-sheet.

β-Gal [3] = biological target: T1, β-Gal; details: 10 μM peptide and 10 μM β-Gal; 20 mM sodium phosphate buffer, pH 6.8
Method: The co-aggregation of Tango 1 peptide, Tango 2 peptide and a tandem repeat of Tango 2 peptide with 13-Gal in vitro were monitored via light scattering from the apparent change in the optical density (OD) at 340 nm due to growth of aggregate particulates at room temperature. The interferor-β-Gal co-aggregation was initiated by adding equimolar molar concentration (10 μM) of either Tango 1 peptide, either Tango 2 peptide, either tandem repeat of Tango 2 peptide and β-Gal in 20 mM sodium phosphate buffer, pH 6.8 followed by gently stirring the sample at 50 rpm.
To characterise the size of the aggregates the hydrodynamic radius (RH) of β-Gal at time zero and after co-incubation with the either Tango 1 peptide, either Tango 2 peptide, either tandem repeat of Tango 2 peptide (Table 14) for 2 h was measured using dynamic light scattering (DLS), DynaPro DLS (Wyatt Technology Europe, Germany).

EGFR family = assay: EGF-induced ERK1/2 phosphorylation in HeLa cells (cross reactivity of VEGFR2 peptides); assay type: cell-based, human; details: EGF 25 ng/ml
Method: As a next step, to test the specificity of the VEGFR2 peptides, we tested their cross reactivity towards the EGFR family. Therefore, HeLa cells were treated with peptide B8 and B12 and subsequently stimulated with EGF (25ng/ml).

human erythrocytes = assay type: cell-based
Source text: The detergent Tween was used as a positive control, causing 100% lysis of RBCs.

S. aureus [4] = tested on: S. aureus
Method: (§1) Bacteria were grown in a shaking incubator at 37° C. and 160rpm in 50 ml BHI , using individual colonies retrieved from a fresh overnight TSA-sheep blood plate. The cultures were grown to a density of approximately 1×10^8cells/ml and then diluted to 5×10^5 cells/ml in CAMHB (Mc Farland 0.5). Each well contained 100p.I (50p.I of peptide containing MHB plus 50 μl inoculum). The final cell density was 1×10^5 to 5×10^5/ml. After addition of the cell suspension, plates were incubated at 37° C. for 18 to 24 hours. The optical density at 590 nm (OD590) of each well was measured after 5 seconds of shaking the plate using Perkin Elmer spectrophotometer (1420 Multilabel Counter Vicotr 3). […] Each well, where no growth was observed, was also plated on TSA-sheep blood agar plates, incubated at 37° C. overnight and visually inspected.
(§2) A microbroth dilution method was used with twofold serial dilutions in CAMHB (according to EMEA guidelines) was used for screening of peptide activity, with concentrations ranging from 0.3 μg/mIto 200 μg/ml.

[5] = tested on: Human embryonic kidney (HEK293T) cells; details: 50 μg/ml (C30: 50 μg/ml or beyond)
[6] = tested on: human embryonic kidney cells (HEK293T cell line); details: 100 μg/ml; 24 hours incubation
Source text: Alamar blue assay allowed monitoring of the total percentage of cell growth recovery in time in the presence of peptides.

human EGFR2 = biological target: T2, human EGFR2 (Homo sapiens, UniProt P04626); assay: EGF-induced ERK1/2 phosphorylation in HeLa cells (ELISA); assay type: cell-based; details: EGF 25 ng/ml
T2 construct: these cells endogenously express EGFR1 and EGFR2; endogenous in cells; host or cells: HeLa
Method: The EGFR2 peptides are designed to target the human EGFR2 receptor. Thus, for these assays, HeLa cells were initially used, as these cells endogenously express EGFR1 and EGFR2.
For EGFR2, a similar screen was performed as for VEGFR2. Instead of using the time-consuming Western Blot method, however, an ELISA protocol was used that can detect both phospho- and total ERK1/2.

PSA = biological target: T3, PSA (Homo sapiens, UniProt P07288); assay: PepBlot detection of PSA in human seminal plasma; assay type: binding; details: 10% seminal plasma; for detection of PSA compared with monoclonal antibody: 250 nM peptide
T3 construct: A sample of 10% seminal plasma was fractionated under non-reducing condition using denaturing gel electrophoresis; from tissue; host or cells: human seminal plasma
T3 sequence (P07288 25-261): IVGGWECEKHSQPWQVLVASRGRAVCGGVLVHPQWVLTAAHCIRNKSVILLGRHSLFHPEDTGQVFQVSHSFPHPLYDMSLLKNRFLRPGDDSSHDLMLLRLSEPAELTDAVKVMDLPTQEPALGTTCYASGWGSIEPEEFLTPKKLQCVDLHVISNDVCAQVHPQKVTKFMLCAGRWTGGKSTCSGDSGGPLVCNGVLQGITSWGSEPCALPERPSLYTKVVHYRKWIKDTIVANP
Method: Semen from a volunteer was collected and allowed to liquefy at room temperature. After 2 h the seminal fluid was centrifuged at 10,000×g for 15 min to separate the plasma from sperm cells. A sample of 10% seminal plasma was fractionated under non-reducing condition using denaturing gel electrophoresis then transferred to PVDF membrane and blocked using protocol described for serum electrophoresis. Lanes of membrane were agitated separately with 250 nM of peptide b^˜[…] (SEQ ID NO: 88) or peptide b^˜[…] (SEQ ID NO: 85) or 250 pM tandem repeat peptide b^˜[…] (SEQ ID NO: 89) formulated in 10 mM MES buffer pH 5.1, 100 mM trehalose, 0.05% Tween 20 and 2.5% DMSO at 25° C. for 1 h. The membranes were rinsed in 10 mM MES buffer pH 5.1, 0.05% tween 20 and stained with HRP-conjugated SRP and visualized with ECL system. In parallel WB detection of PSA in seminal plasma was carried out by incubating the membrane with (1:5000) rabbit monoclonal anti-PSA antibody (EP1588Yi Abcam) specific to the c-terminal peptide of PSA. This was followed by staining with goat polyclonal anti-rabbit antibody conjugated to HRP and visualised using ECL system.

Method for B. cereus: as §1, §2
Method for Corynebacterium: as §1, §2

CC1(C)S[C@@H]2[C@H](NC(=O)[C@H](N)c3ccccc3)C(=O)N2[C@H]1C(=O)O [Ampicilin, reference compound]
maximal increase of the MIC (MRSA strain 326; 31 days, concentration in medium adjusted to MIC of previous day): up to 7 fold
MIC on the last day of the experiment (MRSA strain 326; day 31): 100 µg/mL

CCOC(=O)C1=C[C@@H](OC(CC)CC)[C@H](NC(C)=O)[C@@H](N)C1 [Tamiflu, reference compound]
virus replication (PR8 virus; positive control, 1 μM or 10 nM): did not completely inhibit viral replication in one setup

CO[C@H]1/C=C/O[C@@]2(C)Oc3c(C)c(O)c4c(O)c(c(/C=N/N5CCN(C)CC5)c(O)c4c3C2=O)NC(=O)/C(C)=C\C=C\[C@H](C)[C@H](O)[C@@H](C)[C@@H](O)[C@@H](C)[C@H](OC(C)=O)[C@@H]1C [rifampin, reference compound]
fold elevation of the MIC (S. aureus [1]): ≤ 512 fold

CN[C@H](CC(C)C)C(=O)N[C@H]1C(=O)N[C@@H](CC(N)=O)C(=O)N[C@H]2C(=O)N[C@H]3C(=O)N[C@H](C(=O)N[C@H](C(=O)O)c4cc(O)cc(O)c4-c4cc3ccc4O)[C@H](O)c3ccc(c(Cl)c3)Oc3cc2cc(c3O[C@@H]2O[C@H](CO)[C@@H](O)[C@H](O)[C@H]2O[C@H]2C[C@](C)(N)[C@H](O)[C@H](C)O2)Oc2ccc(cc2Cl)[C@H]1O [vancomycin, reference compound]
fold elevation of the MIC (S. aureus [1]): increased two-fold
reduction of expansion of initial inoculum (S. aureus MRSA 326): 8.7 Log10 CFU/ml

(His)6~RLAVVLQR [Tango 1 peptide]
binding affinity with β-Gal observed in SPR (β-Gal [2]): weak binding affinity
co-aggregation kinetics with free β-Gal in solution (β-Gal [3]): faster co-aggregation kinetics

(His)6~RVIIWSLGNRGSGSAPAARVIIWSLGNR [Tandem of Tango 2]
co-aggregation kinetics with free β-Gal in solution (β-Gal [3]): fast co-aggregation kinetics

DMISYAGMDPPDMISYAGMD [B12, VEGFR2 peptide B12]
ERK1/2 phosphorylation after EGF stimulation (EGFR family): do not inhibit ERK1/2 phosphorylation

O Z RGVSILNLRGSRGVSILNLR [interferor 4]
virus replication (PR8 virus): still reproducibly inhibit virus replication

O Z RLIQLIVSRGSRLIQLIVSR [interferor 1]
virus replication (PR8 virus): still reproducibly inhibit virus replication

O Z RTMAWTVVRGSRTMAWIVVR (RTMAWTVVRGSRTMAWTVVR) [interferor 3]
virus replication (PR8 virus): less strong

O Z RTTIMAAFRGSRTTIMAAFR [interferor 2]
virus replication (PR8 virus): less strong

RFFIALSRRGSRVQAYLYRR [Hit50]
hemolytic activity (human erythrocytes): no significant hemolytic activity at clinically relevant concentrations
MIC (S. aureus [4]): 25 µg/mL
MIC in presence of 50% FBS (S. aureus [4]): 100 µg/mL
MIC values against MRSA 326 (S. aureus [4]): 50 µg/mL
MIC values against B.cereus ATCC (B. cereus): >100 µg/mL
MIC values against Corynebacterium (Corynebacterium): 12.5 µg/mL
LDH release [5]: 5%
recovery of HEK cells [6]: 90%

RIISAVVGRPPRIISAVVGR [A12]
EGF signaling (phospho-ERK1/2) (human EGFR2): significantly and repeatedly reduced EGF signaling

RTGYLYISRPPRTGYLYISR [A11]
EGF signaling (phospho-ERK1/2) (human EGFR2): significantly and repeatedly reduced EGF signaling

RWGLLLALRPPRWGLLLALR [A5]
EGF signaling (phospho-ERK1/2) (human EGFR2): significantly and repeatedly reduced EGF signaling

b~RQWVLTAAR [PSA interferor peptide]
detection of PSA compared with monoclonal antibody (PSA): can detect PSA to comparable levels as the antibody

b~RQWVLTAARGSGSAPAARQWVLTAAR ({Biotin-Ttds}-APAARQWVLTAARGSGSAPAARQWVLTAAR) [tandem repeat PSA peptide]
detection of PSA (band signal) (PSA; 250 pM tandem repeat peptide): strong band signal

b~RWQVLVASD
detection of PSA compared with monoclonal antibody (PSA): can detect PSA to comparable levels as the antibody
